17 molecules from US20230242530A1, “8-(AZETIDIN-1-YL)-[1,2,4]TRIAZOLO[1,5-A]PYRIDINYL COMPOUNDS, COMPOSITIONS AND METHODS OF USE THEREOF” (Genentech, Inc., priority 2016, published 2023) can be followed below.

Test [1] has as its system JAK1-dependent STAT6 phosphorylation downstream of IL-13 stimulation in BEAS-2B cells. The test is described as follows: JAK1 pathway assay in cell lines: IL-13 p-STAT6 BEAS-2B. The format is cell-based. Particulars: BEAS-2B human bronchial epithelial cells, 1 hr compound, IL-13 15 min, MSD readout. How it is done:
JAK1 Pathway Assay in Cell Lines was Carried Out as Follows:
Inhibitor potency (EC50) was determined in cell-based assays designed to measure JAK1 dependent STAT phosphorylation. As noted above, inhibition of IL-4, IL-13, and IL-9 signalling by blocking the Jak/Stat signaling pathway can alleviate asthmatic symptoms in pre-clinical lung inflammation models (Mathew et al., 2001, J Exp Med 193(9): 1087-1096; Kudlacz et. al., 2008, Eur J. Pharmacol 582(1-3): 154-161).
In one assay approach, TF-1 human erythroleukemia cells obtained from the American Type Culture Collection (ATCC; Manassas, Va.) were used to measure JAK1-dependent STAT6 phosphorylation downstream of IL-13 stimulation. Prior to use in the assays, TF-1 cells were starved of GM-CSF overnight in OptiMEM medium (Life Technologies, Grand Island, N.Y.) supplemented with 0.5% charcoal/dextran stripped fetal bovine serum (FBS), 0.1 mM non-essential amino acids (NEAA), and 1 mM sodium pyruvate. The assays were run in 384-well plates in serum-free OptiMEM medium using 300,000 cells per well. In a second assay approach, BEAS-2B human bronchial epithelial cells obtained from ATCC were plated at 100,000 cells per well of a 96-well plate one day prior to the experiment. The BEAS-2B assay was run in complete growth medium (bronchial epithelial basal medium plus bulletkit; Lonza; Basel, Switzerland).
Test compounds were serially diluted 1:2 in DMSO and then diluted 1:50 in medium just before use. Diluted compounds were added to the cells, for a final DMSO concentration of 0.2%, and incubated for 30 mi (for the TF-1 assay) or 1 hr (for the BEAS-2B assay) at 37 QC. Then, cells were stimulated with human recombinant cytokine at their respective EC90 concentrations, as previously determined for each individual lot. Cells were stimulated with IL-13 (R&D Systems, Minneapolis, Minn.) for 15 min at 37 °C. The TF-1 cell reactions were stopped by the direct addition of 10× lysis buffer (Cell Signaling Technologies, Danvers, Mass.), whereas the BEAS-2B cell incubations were halted by the removal of medium and addition of 1× lysis buffer. The resultant samples were frozen in the plates at −80 °C. Compound mediated inhibition of STAT6 phosphorylation was measured in the cell lysates using MesoScale Discovery (MSD) technology (Gaithersburg, Md.). EC50 values were determined as the concentration of compound required for 50% inhibition of STAT phosphorylation relative to that measured for the DMSO control.

Test [2] concerns the target T1, isolated recombinant JAK1 kinase domain (Homo sapiens, UniProt P23458).
T1 construct: isolated recombinant JAK1 and JAK2 kinase domain
The experiment in a line: JAK enzyme assay, JAK1 kinase domain (Caliper LabChip). The format is biochemical. Particulars: 1.5 nM JAK1, ATP 25 μM, Morrison tight binding model. How it is done: (§1) JAK Enzyme Assays were Carried Out as Follows:
(§2) The activity of the isolated recombinant JAK1 and JAK2 kinase domain was measured by monitoring phosphorylation of a peptide derived from JAK3 (Val-Ala-Leu-Val-Asp-Gly-Tyr-Phe-Arg-Leu-Thr-Thr, fluorescently labeled on the N-terminus with 5-carboxyfluorescein) using the Caliper LabChip® technology (Caliper Life Sciences, Hopkinton, Mass.). […] Reactions were incubated at 22 °C in 384-well polypropylene microtiter plates for 30 minutes and then stopped by addition of 25 μL of an EDTA containing solution (100 mM HEPES buffer (pH 7.2), 0.015% Brij-35, 150 mM EDTA), resulting in a final EDTA concentration of 50 mM. After termination of the kinase reaction, the proportion of phosphorylated product was determined as a fraction of total peptide substrate using the Caliper LabChip® 3000 according to the manufacturer's specifications. Ki values were then determined using the Morrison tight binding model (Morrison, J. F., Biochim. Biophys. Acta. 185:269-296 (1969); William, J. W. and Morrison, J. F., Meth. Enzymol., 63:437-467 (1979)) modified for ATP-competitive inhibition [Ki=Ki,app/(1+[ATP]/Km,app)].

The target in test [3] is T2, isolated recombinant JAK2 kinase domain (Homo sapiens, UniProt O60674).
T2 construct: isolated recombinant JAK1 and JAK2 kinase domain
The experiment in a line: JAK enzyme assay, JAK2 kinase domain (Caliper LabChip). Particulars: 0.2 nM JAK2, ATP 25 μM, Morrison tight binding model. It is filed as biochemical. How it is done: as §1, §2

T2 sequence (O60674 849-1124 limits assumed): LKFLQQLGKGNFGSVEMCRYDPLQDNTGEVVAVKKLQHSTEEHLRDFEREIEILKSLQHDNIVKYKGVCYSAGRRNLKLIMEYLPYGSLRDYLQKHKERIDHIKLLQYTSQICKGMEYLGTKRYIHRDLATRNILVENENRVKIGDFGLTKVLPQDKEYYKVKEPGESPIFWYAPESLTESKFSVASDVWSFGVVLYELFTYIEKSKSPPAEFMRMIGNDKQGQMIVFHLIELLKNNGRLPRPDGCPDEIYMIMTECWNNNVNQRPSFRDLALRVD
T1 sequence (P23458 875-1153 limits assumed): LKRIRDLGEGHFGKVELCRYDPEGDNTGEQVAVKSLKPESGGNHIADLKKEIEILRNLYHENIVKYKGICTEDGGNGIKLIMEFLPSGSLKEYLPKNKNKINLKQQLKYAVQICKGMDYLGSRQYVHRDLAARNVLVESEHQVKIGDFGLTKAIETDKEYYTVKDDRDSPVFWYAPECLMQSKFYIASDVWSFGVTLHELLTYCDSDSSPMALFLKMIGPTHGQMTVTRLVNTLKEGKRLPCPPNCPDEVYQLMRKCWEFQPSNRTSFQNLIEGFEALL

In test [1], `Cc1cnn(C2(CC#N)CN(c3cccn4nc(Nc5cnn(CC(=O)N6CCN(C)CC6)c5)nc34)C2)c1` [Example 10] gave an EC50 of 18 nM. Besides, the Ki in test [2] was found to be 0.4 nM; in test [3], 1.5 nM.

In turn, `N#CCC1(n2cc(OC(F)F)cn2)CN(c2cccn3nc(Nc4cn[nH]c4)nc23)C1` [Example 146, 2-[3-[4-(difluoromethoxy)pyrazol-1-yl]-1-[2-(1H-pyrazol-4-ylamino)-[1,2,4]triazolo[1,5-a]pyridin-8-yl]azetidin-3-yl]acetonitrile] returned an EC50 in test [1] of 7 nM. Further, the Ki in test [2] was found to be 0.2 nM; in test [3], 0.3 nM.

In turn, `CN1CCN(C(=O)Cn2cc(Nc3nc4c(N5CC(CC#N)(n6cccn6)C5)cccn4n3)cn2)CC1` [Example 18] had an EC50 in test [1] of 21 nM. Besides, the values for the inhibitory constant (Ki) in test [2] and in test [3] were 0.7 nM and 1.5 nM, respectively.

In turn, `CCc1cnn(C2(C(C)C#N)CN(c3cccn4nc(Nc5cnn(CC(=O)N6CCN(C)CC6)c5)nc34)C2)c1` (stereo not drawn) [Example 54, 2-[3-(4-ethylpyrazol-1-yl)-1-[2-[[1-[2-(4-methylpiperazin-1-yl)-2-oxo-ethyl]pyrazol-4-yl]amino]-[1,2,4]triazolo[1,5-a]pyridin-8-yl]azetidin-3-yl]propanenitrile] displayed an EC50 in test [1] of 231 nM. Also, the Ki in test [2] is 1 nM; in test [3], 2.8 nM.

In the case of `CSc1cnn(C2(CC#N)CN(c3cccn4nc(Nc5cnn(CC(=O)N6CCN(C)CC6)c5)nc34)C2)c1` [Example 119], the EC50 in test [1] came out at 16 nM. In addition, the Ki in test [2] came to 0.3 nM; in test [3], 0.2 nM.

As for `CCc1cnn(C2(CC#N)CN(c3cccn4nc(Nc5cnn(CC(=O)N6CCN(CCNC(=O)CC78CC9CC(CC(C9)C7)C8)CC6)c5)nc34)C2)c1` [Example 58, 2-(l-adamantyl)-N-[2-[4-[2-[4-[[8-[3-(cyanomethyl)-3-(4-ethylpyrazol-1-yl)azetidin-1-yl]-[1,2,4]triazolo[1,5-a]pyridin-2-yl]amino]pyrazol-1-yl]acetyl]piperazin-1-yl]ethyl]acetamide], it took 13 nM to reach a half-maximal effect in test [1] (EC50). Also, the Ki came to 0.4 nM in test [2] and 0.3 nM in test [3].

As to `CCc1cnn(C2(CC#N)CN(c3cccn4nc(Nc5ccc(C(=O)N6CCN(C)CC6)c(F)c5)nc34)C2)c1` [Example 91, 2-[3-(4-ethylpyrazol-1-yl)-1-[2-[3-fluoro-4-(4-methylpiperazine-1-carbonyl)anilino]-[1,2,4]triazolo[1,5-a]pyridin-8-yl]azetidin-3-yl]acetonitrile], the EC50 in test [1] came to 213 nM. The values for the Ki in test [2] and in test [3] were 0.4 nM and 0.9 nM, respectively.

Regarding `N#CCC1(n2cc(CCF)cn2)CN(c2cccn3nc(Nc4cn[nH]c4)nc23)C1` [Example 149, 2-[3-[4-(2-fluoroethyl)pyrazol-1-yl]-1-[2-(1H-pyrazol-4-ylamino)-[1,2,4]triazolo[1,5-a]pyridin-8-yl]azetidin-3-yl]acetonitrile], the EC50 in test [1] turned out to be 21 nM. Moreover, the Ki in test [2] was determined as 0.3 nM; in test [3] it was 0.6 nM.

In test [1], `CCc1cnn(C2(CC#N)CN(c3cccn4nc(Nc5cnn(CC(=O)N6CCN(CCCC#N)CC6)c5)nc34)C2)c1` [Example 68, 4-[4-[2-[4-[[8-[3-(cyanomethyl)-3-(4-ethylpyrazol-1-yl)azetidin-1-yl]-[1,2,4]triazolo[1,5-a]pyridin-2-yl]amino]pyrazol-1-yl]acetyl]piperazin-1-yl]butanenitrile] gave an EC50 of 14 nM. The figures for the Ki in test [2] and in test [3] were 0.3 nM and 0.5 nM, respectively.

In test [1], `CSc1cc(C2(CC#N)CN(c3cccn4nc(Nc5cnn(CC(=O)N6CCN(C)CC6)c5)nc34)C2)ccc1F` [Example 79, 2-[3-(4-fluoro-3-methylsulfanyl-phenyl)-1-[2-[[1-[2-(4-methylpiperazin-1-yl)-2-oxo-ethyl]pyrazol-4-yl]amino]-[1,2,4]triazolo[1,5-a]pyridin-8-yl]azetidin-3-yl]acetonitrile] yielded an EC50 of 16 nM. Moreover, the Ki in test [2] worked out at 0.3 nM; in test [3], 0.7 nM.

`CN1CCN(C(=O)Cn2cc(Nc3nc4c(N5CC(CC#N)(n6cc(C7CCCC7)cn6)C5)cccn4n3)cn2)CC1` [Example 49, 2-[3-(4-cyclopentylpyrazol-1-yl)-1-[2-[[1-[2-(4-methylpiperazin-1-yl)-2-oxo-ethyl]pyrazol-4-yl]amino]-[1,2,4]triazolo[1,5-a]pyridin-8-yl]azetidin-3-yl]acetonitrile] yielded an EC50 in test [1] of 30 nM. The Ki in test [2] was determined as 0.6 nM; in test [3] it was 2.4 nM.

Consider `CN1CCN(C(=O)Cn2cc(Nc3nc4c(N5CC(CC#N)(c6ccc(F)c(Cl)c6)C5)cccn4n3)cn2)CC1` [Example 83, 2-[3-(3-chloro-4-fluoro-phenyl)-1-[2-[[1-[2-(4-methylpiperazin-1-yl)-2-oxo-ethyl]pyrazol-4-yl]amino]-[1,2,4]triazolo[1,5-a]pyridin-8-yl]azetidin-3-yl]acetonitrile], for which, in test [1], the EC50 worked out at 14 nM. Further, the Ki in test [2] and in test [3] was 0.2 nM in each case.

Molecule `N#CCC1(c2cccc(Cl)c2)CN(c2cccn3nc(Nc4cnn(CC(=O)N5CCC(NCC6(C#N)CC6)CC5)c4)nc23)C1` [Example 99, 1-[[[1-[2-[4-[[8-[3-(3-chlorophenyl)-3-(cyanomethyl)azetidin-1-yl]-[1,2,4]triazolo[1,5-a]pyridin-2-yl]amino]pyrazol-1-yl]acetyl]-4-piperidyl]amino]methyl]cycl opropanecarbonitrile] showed an EC50 in test [1] of 71 nM. The Ki in test [2] turned out to be 2 nM; in test [3], 4 nM.

With `CN1CCN(C(=O)Cn2cc(Nc3nc4c(N5CC(CC#N)(CCc6ccccc6)C5)cccn4n3)cn2)CC1` [Example 76], in test [1], the EC50 was determined as 16 nM. The inhibition constant Ki in test [2] is 0.3 nM; in test [3], 0.9 nM.

Turning to `CSc1cccc(C2(CC#N)CN(c3cccn4nc(Nc5cnn(CC(=O)N6CCN(C)CC6)c5)nc34)C2)c1` [Example 78], in test [1], the midpoint of the response, the EC50, lay at 17 nM. Also, the Ki was 0.3 nM in test [2] and 0.9 nM in test [3].

Molecule `CCc1cnn(C2(CC#N)CN(c3cccn4nc(Nc5cnn(CC(=O)N6CCC(N7CCOCC7)CC6)c5)nc34)C2)c1` [Example 29, 2-[3-(4-ethylpyrazol-1-yl)-1-[2-[[1-[2-(4-morpholino-1-piperidyl)-2-oxo-ethyl]pyrazol-4-yl]amino]-[1,2,4]triazolo[1,5-a]pyridin-8-yl]azetidin-3-yl]acetonitrile] had an EC50 in test [1] of 78 nM. Moreover, the figures for the Ki in test [2] and in test [3] were 0.6 nM and 2.1 nM, respectively.

`CCc1cnn(C2(CC#N)CN(c3cccn4nc(Nc5ccc(C(=O)N6CC7(CCN(C)CC7)C6)cc5)nc34)C2)c1` [Example 85, 2-[3-(4-ethylpyrazol-1-yl)-1-[2-[4-(7-methyl-2,7-diazaspiro[3.5]nonane-2-carbonyl)anilino]-[1,2,4]triazolo[1,5-a]pyridin-8-yl]azetidin-3-yl]acetonitrile]: the midpoint of the response in test [1], the EC50, lay at 197 nM. Further, the figures for the Ki in test [2] and in test [3] were 1.1 nM and 9.3 nM, respectively.

The term EC50 denotes the concentration that produces a half-maximal response. Lower therefore signals greater potency. A word on the Ki: it is a dissociation constant, usually derived from enzyme kinetics or from competition with a known ligand.
